Tests used:
[1] = system: HIV-1 variants with protease substitutions; details: both substitutions G48V-L90M; cited from earlier work
[2] = system: HIV-1 patient viruses with protease L90M; experiment: Phenotypic susceptibility profiles of 333 patient virus samples with L90M (not 30 or 50); format: cell-based; details: for % with SQV FC > 2.5 / wt % > 2.5 / wt % > 10: L90M
[3] = system: HIV-1 patient-derived protease and reverse transcriptase segments (N88S in PR) in resistance test vectors; experiment: Phenotypic drug susceptibility test with resistance test vectors from patient samples; format: cell-based; details: patient sample RTV-627
[4] = system: HIV-1 protease site-directed mutants (N88S, L63P, V77I, M46L) in resistance test vector; experiment: Phenotypic susceptibility assay of resistance test vectors with site-directed mutations in PR
Text: The resistance test vectors containing a functional luciferase gene cassette were constructed and host cells were transfected with the resistance test vector DNA. […] The resistance test vector viral particles produced by transfecting the resistance test vector DNA into host cells, either in the presence or absence of protease inhibitors, were used to infect target host cells grown either in the absence of NRTI or NNRTI or in the presence of increasing concentrations of the drug. Luciferase activity in infected target host cells in the presence of drug was compared to the luciferase activity in infected target host cells in the absence of drug. […] The IC50 values were determined by plotting percent drug inhibition vs. log10 drug concentration.
Host cells were seeded in 10-cm-diameter dishes and were transfected one day after plating with resistance test vector plasmid DNA and the envelope expression vector. Transfections were performed using a calcium-phosphate co-precipitation procedure. The cell culture media containing the DNA precipitate was replaced with fresh medium, from one to 24 hours, after transfection. Cell culture media containing resistance test vector viral particles was harvested one to four days after transfection and was passed through a 0.45-mm filter before being stored at −80° C. HIV capsid protein (p24) levels in the harvested cell culture media were determined by an EIA method as described by the manufacturer (SIAC; Frederick, Md.). Before infection, target cells (293 and 293/T) were plated in cell culture media. Control infections were performed using cell culture media from mock transfections (no DNA) or transfections containing the resistance test vector plasmid DNA without the envelope expression plasmid. One to three or more days after infection the media was removed and cell lysis buffer (Promega) was added to each well. Cell lysates were assayed for luciferase activity. The inhibitory effect of the drug was determined using the following equation: % luciferase inhibition=[1−(RLUluc[drug]RLUluc)]×100 where RLUluc [drug] is the relative light unit of luciferase activity in infected cells in the presence of drug and RLUluc is the Relative Light Unit of luciferase activity in infected cells in the absence of drug. IC50 values were obtained from the sigmoidal curves that were generated from the data by plotting the percent inhibition of luciferase activity vs. the log10 drug concentration.
Mutations are introduced into the resistance test vector through any of the widely known methods for site-directed mutagenesis. […] A resistance test vector containing the specific mutation or group of mutations are then tested using the phenotypic susceptibility assay described above and the susceptibility profile is compared to that of a genetically defined wild-type (drug susceptible) resistance test vector which lacks the specific mutations.
Resistance test vectors were constructed containing the N88S mutation alone and in combination with other substitutions in PR (L63P, V77I and M46L) known to modulate the HIV susceptibility to PRIs. Mutations were introduced into the resistance test vector using the mega-primer PCR method for site-directed mutagenesis.

[5] = system: HIV-1 patient viruses with protease L90M; experiment: Phenotypic susceptibility profiles of 58 patient virus samples with L90M, no other primary mutations; format: cell-based; details: for % w with SQV FC > 2.5: L90M; for % FC > 2.5: SQV
HIV-1 = details: cited from earlier work

## CC(C)(C)NC(=O)[C@@H]1C[C@@H]2CCCC[C@@H]2CN1C[C@@H](O)[C@H](Cc1ccccc1)NC(=O)[C@H](CC(N)=O)NC(=O)c1ccc2ccccc2n1 [saquinavir]
[1]
  loss of susceptibility: > 100 fold
[2]; number of secondary mutations (weighted count) 0
  % with SQV FC > 2.5: 23.5%
[2]; number of secondary mutations (weighted count) 1
  % with SQV FC > 2.5: 25.0%
[2]; number of secondary mutations (weighted count) 2
  % with SQV FC > 2.5: 69.4%
[2]; number of secondary mutations (weighted count) 3
  % with SQV FC > 2.5: 85.7%
[2]; number of secondary mutations (weighted count) 4
  % with SQV FC > 2.5: 97.3%
[2]; number of secondary mutations (weighted count) 5
  % with SQV FC > 2.5: 100%
[2]; number of secondary mutations (weighted count) 6 or more
  % with SQV FC > 2.5: 100%
[2]; Saquinavir FC>2.5, position 10 wild type
  wt % > 2.5: 56.4%
[2]; Saquinavir FC>2.5, position 20 wild type
  wt % > 2.5: 73.9%
[2]; Saquinavir FC>2.5, position 33 wild type
  wt % > 2.5: 77.4%
[2]; Saquinavir FC>2.5, position 36 wild type
  wt % > 2.5: 74.9%
[2]; Saquinavir FC>2.5, position 37 wild type
  wt % > 2.5: 76.4%
[2]; Saquinavir FC>2.5, position 48 wild type
  wt % > 2.5: 78.1%
[2]; Saquinavir FC>2.5, position 53 wild type
  wt % > 2.5: 77.3%
[2]; Saquinavir FC>2.5, position 54 wild type
  wt % > 2.5: 68.1%
[2]; Saquinavir FC>2.5, position 63 wild type
  wt % > 2.5: 37.5%
[2]; Saquinavir FC>2.5, position 64 wild type
  wt % > 2.5: 83.1%
[2]; Saquinavir FC>2.5, position 66 wild type
  wt % > 2.5: 78.4%
[2]; Saquinavir FC>2.5, position 71 wild type
  wt % > 2.5: 58.0%
[2]; Saquinavir FC>2.5, position 73 wild type
  wt % > 2.5: 73.6%
[2]; Saquinavir FC>2.5, position 84 wild type
  wt % > 2.5: 70.7%
[2]; Saquinavir FC>2.5, position 93 wild type
  wt % > 2.5: 85.6%
[2]; Saquinavir FC>2.5, listed as 90: all samples with L90M
  mt % > 2.5: 79.3%
[2]; Saquinavir FC>10, position 10 wild type
  wt % > 10: 20.5%
[2]; Saquinavir FC>10, position 20 wild type
  wt % > 10: 33.9%
[2]; Saquinavir FC>10, position 23 wild type
  wt % > 10: 42.4%
[2]; Saquinavir FC>10, position 35 wild type
  wt % > 10: 38.8%
[2]; Saquinavir FC>10, position 36 wild type
  wt % > 10: 34.2%
[2]; Saquinavir FC>10, position 48 wild type
  wt % > 10: 40.8%
[2]; Saquinavir FC>10, position 53 wild type
  wt % > 10: 39.8%
[2]; Saquinavir FC>10, position 54 wild type
  wt % > 10: 32.8%
[2]; Saquinavir FC>10, position 58 wild type
  wt % > 10: 41.6%
[2]; Saquinavir FC>10, position 62 wild type
  wt % > 10: 38.5%
[2]; Saquinavir FC>10, position 64 wild type
  wt % > 10: 46.1%
[2]; Saquinavir FC>10, position 71 wild type
  wt % > 10: 29.0%
[2]; Saquinavir FC>10, position 73 wild type
  wt % > 10: 39.4%
[2]; Saquinavir FC>10, position 77 wild type
  wt % > 10: 49.5%
[2]; Saquinavir FC>10, position 84 wild type
  wt % > 10: 24.9%
[2]; Saquinavir FC>10, position 93 wild type
  wt % > 10: 50.7%
[2]; Saquinavir FC>10, listed as 90: all samples with L90M
  mt % > 10: 43.5%
[3]
  change in susceptibility: increase
[4]; site-directed mutation N88S
  Fold Change vs. reference: 0.47 fold
[4]; site-directed mutations L63P
  Fold Change vs. reference: 1.04 fold
[4]; site-directed mutations L63P, N88S
  Fold Change vs. reference: 1.44 fold
[4]; site-directed mutations M46L, L63P, V77I, N88S
  Fold Change vs. reference: 1.45 fold
[5]; number of secondary mutations 0
  % w with SQV FC > 2.5: 53%
[5]; number of secondary mutations 1
  % w with SQV FC > 2.5: 47%
[5]; number of secondary mutations 2
  % w with SQV FC > 2.5: 43%
[5]; number of secondary mutations 3
  % w with SQV FC > 2.5: 68%
[5]; number of secondary mutations 4
  % w with SQV FC > 2.5: 77%
[5]; number of secondary mutations 5
  % w with SQV FC > 2.5: 100%
[5]; number of secondary mutations 6
  % w with SQV FC > 2.5: 100%
[5]; L90M + mutation at position 10
  % FC > 2.5: 65%
[5]; L90M + mutation at position 71
  % FC > 2.5: 78%
[5]; L90M + mutation at position 71, listed as SQV
  % FC > 2.5: 78%
[5]; L90M + mutation at position 73
  % FC > 2.5: 79%
[5]; L90M + mutation at position 73, listed as SQV
  % FC > 2.5: 79%
[5]; L90M + mutation at position 77
  % FC > 2.5: 76%
[5]; listed as 90: all viruses with L90M
  % FC > 2.5: 55%
HIV-1; after 1 year of monotherapy with 1,800 mg daily
  patients in whom resistant variants emerge: approximately 45%
HIV-1; combination therapy with zidovudine, zalcitabine, and saquinavir
  frequency of resistance: 22%
